Data taken from patent US8912227B1, “Bicyclic pyrrole derivatives useful as agonists of GPR120” (Janssen Pharmaceutica NV, priority 2014, dated 2014).

Columns and labels:
[1] = molecular target: T1, short form of the GPR120 receptor (Homo sapiens, UniProt Q5NUL3); assay: Human GPR120 DiscoveRx PathHunter β-Arrestin assay, Procedure β-arrestin B; format: cell-based; details: PathHunter CHO-K1 GPR120S β-Arrestin cell line, 5000 cells/well
T1 construct: host or cells: PathHunter CHO-K1 GPR120S β-Arrestin Cell Line
T1 sequence (P32121 whole entry partner, one chain of several): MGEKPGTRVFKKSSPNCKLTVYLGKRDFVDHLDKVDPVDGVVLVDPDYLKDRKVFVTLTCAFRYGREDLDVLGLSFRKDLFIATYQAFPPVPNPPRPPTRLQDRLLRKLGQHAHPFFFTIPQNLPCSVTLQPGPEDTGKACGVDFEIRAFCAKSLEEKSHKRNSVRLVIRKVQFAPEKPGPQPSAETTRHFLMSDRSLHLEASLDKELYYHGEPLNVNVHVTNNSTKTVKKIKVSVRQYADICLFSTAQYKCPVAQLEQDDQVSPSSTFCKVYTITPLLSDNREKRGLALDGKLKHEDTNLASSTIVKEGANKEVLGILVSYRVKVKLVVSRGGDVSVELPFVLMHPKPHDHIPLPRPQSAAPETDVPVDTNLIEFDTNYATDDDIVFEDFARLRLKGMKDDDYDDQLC
Text: The binding of an agonist (medium/long chain fatty acids or small molecule agonists) to the G-protein-coupled receptor GPR120 activates phospholipase C, leading to release of intracellular Ca^+2 through the generation of inositol 1,4,5-trisphosphate (InsP3 or IP3). GPR120 activation can also trigger intracellular signaling via recruitment of β-Arrestin. In the present method, agonist-induced activation of the human GPR120 receptor is monitored through the use of PathHunter CHO-K1 GPR120 β-Arrestin Cell Line engineered by DiscoveRx, as detailed below. The cell lines are designed to co-express both the ProLink/Enzyme Donor (PK)-tagged GPCR and the Enzyme […] (EA)-tagged Beta-Arrestin fusion proteins. Upon GPR120 receptor stimulation/activation, the EA-tagged β-Arrestin portion is translocated to the tagged receptor, where the two enzyme fragments are brought within close proximity. Under these conditions, these fragments can interact and form an active Beta-gal enzyme complex through Enzyme Fragment Complementation (EFC). This active Beta-gal complex can enzymatically hydrolyse the substrate to produce a detectable light signal; therefore, activation as a function of agonist concentration can be expressed as an EC50 value to determine relative compound activities. This in vitro assay therefore serves to assess compound agonist activity of the GPR120.
In Procedure β-arrestin B the cells used were PathHunter CHO-K1 GPR120S β-Arrestin Cell Line, expressing the short form of the GPR120 receptor (Accession #NM_181745), with 5000 cells/well.
The selected CHO-K1 GPR120 β-Arrestin cells were cultured in Ham's F12 media supplemented with 10% fetal bovine serum (FBS), 1% Glutamine, 1×p/s, 800 μg/ml G418 and 300 μg/ml Hygromycin B (for selection). Cell stocks were maintained and grown in a sub-confluent state using standard cell culture procedures. The day before the experiment, the cells were harvested with non-enzymatic cell dissociation buffer and re-suspended in complete growth media at the desired concentration. A Corning 384-plate was then seeded with the proper number of cells in a volume of 25 μL, per well. The seeded plates were incubated overnight at 37° C.
On the day of the experiment, the Assay Buffer containing (a) HBSS with Ca^++ and Mg^++, (b) 20 mM HEPES, and (c) 0.1% BSA stabilizer (pH 7.4) was prepared. The growth medium was gently removed from the cell plates and 20 μL of Assay Buffer added to each well. The plate was then incubated at 37° C. for 60 mins. Test compounds were serially diluted in Assay Buffer to desired concentrations (more particularly, to one or more of the following μM concentrations: 25 μM, 12.5 μM, 6.25 μM, 3.125 μM, 1.562 μM, 0.781 μM, 0.391 μM, 0.195 μM, 0.098 μM, 0.049 μM, 0.024 μM, 0.012 μM). Five μl of compound dilution was then added to each well and the plate incubated at 37° C. for 90 mins. The detection reagents were prepared according to the manufacture's instruction. Twelve μL of the detection reagents were added to each well and the plate incubated at room temperature for 60 mins.
The plates were read on an EnVision instrument, using Protocol name: Luminescence, Plate type: 384 Costar, Measurement height: 3 mm, Measurement time: 1 s, Aperture: 384 Plate aperture. The % activity relative to the positive control was calculated using the following equation:
The % Activity values were plotted versus the concentration of test compound and fitted to a sigmoidal dose-response curve with a Hill slope=1 (fixed value) using nonlinear regression with GraphPad Prism 5.0 to calculate the EC50 values. The Fitting Equation was: Y=Bottom+(Top−Bottom)/(1+10^((LogEC50−X)*HillSlope)), where X is the log of the concentration and Y is the response.

Human GPR120 short form = molecular target: T2, Human GPR120 short form (Homo sapiens, UniProt Q5NUL3); assay: Human GPR120 calcium flux assay, Procedure Calcium B; format: cell-based; details: HEK-293 cells expressing human GPR120 short form, 4200 cells/well, FLIPR
T2 construct: expressed in transfected cells
T2 sequence (Q5NUL3 1-361): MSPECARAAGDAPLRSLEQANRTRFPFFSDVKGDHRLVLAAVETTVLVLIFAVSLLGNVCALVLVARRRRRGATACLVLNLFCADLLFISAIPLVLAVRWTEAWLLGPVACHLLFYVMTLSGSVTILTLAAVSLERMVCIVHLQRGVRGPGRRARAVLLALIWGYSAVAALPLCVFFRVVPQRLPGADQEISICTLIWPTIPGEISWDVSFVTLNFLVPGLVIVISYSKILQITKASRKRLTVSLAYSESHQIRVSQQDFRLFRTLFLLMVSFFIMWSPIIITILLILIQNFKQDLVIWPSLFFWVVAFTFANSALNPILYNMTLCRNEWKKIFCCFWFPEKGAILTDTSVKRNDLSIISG

EC50 [1] [nM]	EC50 (Human GPR120 short form) [nM]	Compound
96	262	Cc1ccc(-n2ccc(C(F)(F)F)c2COc2c(F)cc(CCC(=O)O)cc2F)cc1F [Compound 62, 3-(3,5-difluoro-4-[[1-(3-fluoro-4-methylphenyl)-3-(trifluoromethyl)-1H-pyrrol-2-yl]methoxy]phenyl)propanoic acid]
206	368	O=C(O)CCc1cc(F)c(OCc2c(C(F)(F)F)ccn2-c2ccc(Cl)c(F)c2)c(F)c1 [Compound 67, 3-(4-[[1-(4-chloro-3-fluorophenyl)-3-(trifluoromethyl)-1H-pyrrol-2-yl]methoxy]-3,5-difluorophenyl)propanoic acid]
630	488	CC(Cc1cc(F)c(OCc2c(C(F)(F)F)ccn2-c2ccc(Cl)c(F)c2)c(F)c1)C(=O)O (centres unmarked) [Compound 69, 3-(4-[[1-(4-chloro-3-fluorophenyl)-3-(trifluoromethyl)-1H-pyrrol-2-yl]methoxy]-3,5-difluorophenyl)-2-methylpropanoic acid]
624	179	O=C(O)CCc1cc(F)c(OCc2c(C(F)(F)F)ccn2-c2ccc(Cl)cc2F)c(F)c1 [Compound 71, 3-(4-{[1-(4-Chloro-2-fluorophenyl)-3-(trifluoromethyl)-1H-pyrrol-2-yl]methoxy}-3,5-difluorophenyl)propanoic acid]
1120	175	O=C(O)CCc1cc(F)c(OCc2c(C(F)(F)F)ccn2-c2ccc(F)c(F)c2)c(F)c1 [Compound 76, 3-(4-{[1-(3,4-Difluorophenyl)-3-(trifluoromethyl)-1H-pyrrol-2-yl]methoxy}-3,5-difluorophenyl)propanoic acid]

Continued, compound first:

Compound	EC50 [1] [nM]	EC50 (Human GPR120 short form) [nM]
Cc1ccc(-n2ccc(C(F)(F)F)c2COc2c(F)cc(CC(C)C(=O)O)cc2F)cc1F (centres unmarked) [Compound 64, 3-(3,5-difluoro-4-[[1-(3-fluoro-4-methylphenyl)-3-(trifluoromethyl)-1H-pyrrol-2-yl]methoxy]phenyl)-2-methylpropanoic acid]	264	212
CC(Cc1cc(F)c(OCc2c(C(F)(F)F)ccn2-c2ccc(F)cc2)c(F)c1)C(=O)O (centres unmarked) [Compound 65, 3-(3,5-difluoro-4-[[1-(4-fluorophenyl)-3-(trifluoromethyl)-1H-pyrrol-2-yl]methoxy]phenyl)-2-methylpropanoic acid]	809	547
Cc1ccc(-n2ccc(C(F)(F)F)c2COc2ccc(CCC(=O)O)c(C)c2C)cc1F [Compound 66, 3-(4-{[1-(3-Fluoro-4-methylphenyl)-3-(trifluoromethyl)-1H-pyrrol-2-yl]methoxy}-2,3-dimethylphenyl)propanoic acid]	412	315
Cc1c(CCC(=O)O)ccc(OCc2c(C(F)(F)F)ccn2-c2ccc(Cl)c(F)c2)c1C [Compound 68, 3-(4-{[1-(4-Chloro-3-fluorophenyl)-3-(trifluoromethyl)-1H-pyrrol-2-yl]methoxy}-2,3-dimethylphenyl)propanoic acid]	311	357
O=C(O)CCc1cc(F)c(OCc2c(C(F)(F)F)ccn2-c2ccc(Cl)cc2)c(F)c1 [Compound 70, 3-(4-((1-(4-chlorophenyl)-3-(trifluoromethyl)-1H-pyrrol-2-yl)methoxy)-3,5-difluorophenyl)propanoic acid]	69	80
Cc1ccc(-n2ccc(C(F)(F)F)c2COc2c(F)cc(CCC(=O)O)cc2F)c(F)c1 [Compound 72, 3-(3,5-Difluoro-4-{[1-(2-fluoro-4-methylphenyl)-3-(trifluoromethyl)-1H-pyrrol-2-yl]methoxy}phenyl)propanoic acid]	624	118
Cc1ccc(-n2ccc(C(F)(F)F)c2COc2ccc(CCC(=O)O)c(C)c2C)c(F)c1 [Compound 73, 3-(4-{[1-(2-Fluoro-4-methylphenyl)-3-(trifluoromethyl)-1H-pyrrol-2-yl]methoxy}-2,3-dimethylphenyl)propanoic acid]	749	210
Cc1c(CCC(=O)O)ccc(OCc2c(C(F)(F)F)ccn2-c2ccc(Cl)cc2F)c1C [Compound 74, 3-(4-{[1-(4-Chloro-2-fluorophenyl)-3-(trifluoromethyl)-1H-pyrrol-2-yl]methoxy}-2,3-dimethylphenyl)propanoic acid]	797	167
O=C(O)CCc1cc(F)c(OCc2c(C(F)(F)F)ccn2-c2ccc(F)cc2F)c(F)c1 [Compound 75, 3-(4-{[1-(2,4-Difluorophenyl)-3-(trifluoromethyl)-1H-pyrrol-2-yl]methoxy}-3,5-difluorophenyl)propanoic acid]	577	156
Cc1c(CCC(=O)O)ccc(OCc2c(C(F)(F)F)ccn2-c2ccc(F)cc2F)c1C [Compound 77, 3-(4-{[1-(2,4-Difluorophenyl)-3-(trifluoromethyl)-1H-pyrrol-2-yl]methoxy}-2,3-dimethylphenyl)propanoic acid]	1060	266
Cc1c(CCC(=O)O)ccc(OCc2c(C(F)(F)F)ccn2-c2ccc(F)c(F)c2)c1C [Compound 78, 3-(4-{[1-(3,4-Difluorophenyl)-3-(trifluoromethyl)-1H-pyrrol-2-yl]methoxy}-2,3-dimethylphenyl)propanoic acid]	1420	305
